Earlier results as cited in patent publication US8207376B2, “Method for producing amino acid phosphates” (priority 2006, dated 2012).

Tests used:
[1] = heating; known property
[2] = as reported in JP-A-2006-182753
[3] = as reported in JP-A-2006-182753; remark: listed apart in the source

Cl.NCC(=O)CCC(=O)O [δ-aminolevulinic acid hydrochloride]
temperature at which it is completely degraded [1]: ≥ 156 °C

NCC(=O)CCC(=O)O.O=P(O)(O)O [δ-aminolevulinic acid phosphate]
stimulative nature against the skin and tongue [2]: low stimulative nature against the skin and tongue | permeability through the skin and the like [3]: excellent
